Converted amounts (≈) assume the structure as drawn. Read-outs that look alike come from different tables or passages of the source.
Key:
[1] = format: physicochemical; conditions: for % AmB pH 3: MeOH pH 3, ice bath; for % AmB pH 4: MeOH pH 4, ice bath
Description: The “extent of degradation” of a polyene is the percentage of polyene contained in the dry powder composition determined to be chemically modified from the intact starting material, as determined by a suitable chemical assay (e.g., NMR, HPLC, etc.); 100% of the polyene remaining chemically intact during the spray drying process represents an extent of degradation of 0%.
• Amphotericin B (Spectrum, New Brunswick, N.J.; Alapharma) • Nystatin (Spectrum, New Brunswick, N.J.) • Methanol dehydrated, HPLC grade (EM Industries, Gibbstown, N.J.) • Sodium Hydroxide, 50% (J. T. Baker, Phillipsburg, N.J.) • L-Leucine (Aldrich) • Hydrochloric Acid (J. T. Baker, Phillipsburg, N.J.) • Sodium Deoxycholate (Spectrum, New Brunswick, N.J.) Methods • Reverse Phase-HPLC • RP-HPLC analysis was performed on a Waters 2690HPLC system with a Waters Detector 996 (Skywalker, Inhale No.101232). The system was equipped with either a Vydac C-18 column or an YMC ODC-AQ™ C-18 column. Samples were eluted with a gradient mobile phases consisted of 10 mM sodium acetate buffer (mobile phase A) at pH 5 and CAN (mobile phase B). The flow rate was maintained at 1.0 ml/min, the detector wavelength was 383 nm, and the injection volume was 30μL (microliter). Stability Samples
(§1) In an attempt to reduce the extent of chemical degradation of amphotericin, while also finding solution conditions under which amphotericin B was reasonably soluble (e.g., to an extent greater than about 1 mg/mL), solubility experiments were conducted. The experiments were performed at room temperature for the first 2 hour while adjusting for solution pH. After the amphotericin B was completely dissolved, the samples were transferred to a 4° C. refrigerator for further chemical stability analysis. Table 7 summarizes the formulation details and apparent solubilities at specific pH conditions.
Solutions were prepared as follows. Amphotericin B (AmB) was added to MeOH (3 mg AmB/mL) at either room temperature or in an ice bath. […] The chemical stability of AmB was determined by an HPLC assay as a function of time over 24 hours.

[2] = Apparent solubility of AmB in pH-adjusted methanol; format: physicochemical; conditions: for Solubility: 0 °C, MeOH
Description: as §1
Additional solubility of amphotericin B and stability of the representative formulation, R0140, was investigated. The solubility of amphotericin at pH 5 and at pH 4.7 was investigated; additionally, the chemical stability of amphotericin B at pH 4.8 was further examined. In these experiments, samples were placed in an ice bath during the formulation preparation.

[3] = cited from earlier work
[4] = Solubility of polyenes and excipients in single solvents; format: physicochemical
Description: The solubility of amphotericin and excipients/additives of interest was determined in various solvents in an attempt to find a solvent system suitable for spray drying (i.e., having a sufficiently high vapor pressure) and capable of dissolving both amphotericin and any added excipients at an extent greater than about 10 mg/mL solvent. Although active agents can be spray-dried as suspensions, having the formulation components dissolved in solution provides resulting particles having a homogeneous composition (i.e., when comparing one particle to another particle)—that is to say, each particle in the composition has approximately the same composition and distribution of formulation components.
Amphotericin B is soluble in water at pHs lower than 3 and higher than 10, but only to a limited extent (0.2 mg/ml) —making the volume of solvent required for spray drying under these conditions too large to be reasonably handled. Thus, the following solubilities were experimentally determined to find a single (non-mixed) solvent system for spray drying representative amphotericin B and nystatin formulations.

C[C@@H]1[C@H](O)[C@@H](C)/C=C/C=C/C=C/C=C/C=C/C=C/C=C/[C@H](O[C@@H]2O[C@H](C)[C@@H](O)[C@H](N)[C@@H]2O)C[C@@H]2O[C@](O)(C[C@@H](O)C[C@@H](O)[C@H](O)CC[C@@H](O)C[C@@H](O)CC(=O)O[C@H]1C)C[C@H](O)[C@H]2C(=O)O [Amphotericin B]
% AmB pH 3 ([1]; 4 hr): 93%
% AmB pH 3 ([1]; 18.5 hr): 90%
% AmB pH 3 ([1]; 26 hr): 85%
% AmB pH 3 ([1]; […]): 95%
% AmB pH 4 ([1]; 1 hr): 94%
% AmB pH 4 ([1]; 4 hr): 96%
% AmB pH 4 ([1]; 18.5 hr): 97%
% AmB pH 4 ([1]; 26 hr): 93%
% AmB ([1]; MeOH pH 4.8, in ice bath, 4 hr): 99%
% AmB ([1]; MeOH pH 4.8, in ice bath, 6 hr): 97%
% AmB ([1]; MeOH pH 4.8, in ice bath, 8 hr): 94%
% AmB ([1]; MeOH pH 4.8, in ice bath, 24 hr): 97%
% AmB ([1]; MeOH pH 4.8, in ice bath, […]): 97%
% AmB ([1]; MeOH pH 4.8, room temperature, 4 hr): 85%
% AmB ([1]; MeOH pH 4.8, room temperature, 6 hr): 83%
% AmB ([1]; MeOH pH 4.8, room temperature, 8 hr): 84%
% AmB ([1]; MeOH pH 4.8, room temperature, 24 hr): 78%
% AmB ([1]; MeOH pH 4.8, room temperature, […]): 89%
AmB (%) ([1]; MeOH solution, T = 8 hr (4° C. after first 2 hr)): about 92%
Main Peak % ([1]; MeOH, pH 4.8, in ice): 92.0%
AmB (%) ([1]; MeOH, pH 4.8, in ice, during formulation preparation): 97%
Solubility ([2]; pH 4.7, organic solvent or mixture, pH 4.7, in ice): 3.4 mg/mL (≈ 3.68 mM)
Solubility ([2]; pH 5, organic solvent or mixture, pH 5.0, in ice): ~3 mg/mL (≈ 3.25 mM)
solubility at 2 h ([2]; organic solvent or mixture, in MeOH, room temperature, pH of the formulation 4.4, 6.9 or 9.6): 2.9 mg/mL (≈ 3.14 mM)
Solubility in water ([3]; water at pH 6 to 7): insoluble
Solubility in water ([3]; water at pHs lower than 3 and higher than 10): 0.2 mg/mL (≈ 0.216 mM)

C[C@@H]1[C@H](O)[C@@H](C)/C=C/C=C/CC/C=C/C=C/C=C/C=C/C(O[C@H]2O[C@H](C)[C@@H](O)[C@H](N)[C@@H]2O)CC2O[C@](O)(CC(O)C(O)CCC(O)CC(O)CC(O)CC(=O)O[C@H]1C)CC(O)C2C(=O)O (stereo partly drawn) [Nystatin]
Solubility ([4]; Acetone): 0.1 mg compound/g solvent
Solubility ([4]; Chloroform): 0.7 mg compound/g solvent
Solubility ([4]; DI Water): 1.1 mg compound/g solvent
Solubility ([4]; Ethanol): 0.8 mg compound/g solvent
Solubility ([4]; Ethyl Ether): 0.1 mg compound/g solvent
Solubility ([4]; Hexane): 0.0 mg compound/g solvent
Solubility ([4]; IP Acetate): 0.1 mg compound/g solvent
Solubility ([4]; IPA): 0.1 mg compound/g solvent
Solubility ([4]; Isobutyl Alcohol): 0.5 mg compound/g solvent
Solubility ([4]; Meth. Chloride): 3.9 mg compound/g solvent
Solubility ([4]; Methanol): 11.0 mg compound/g solvent
Solubility ([4]; Pet. Ether): 0.0 mg compound/g solvent
Solubility ([4]; THF): 1.6 mg compound/g solvent

From patent US7473433B2, “Pulmonary delivery of polyene antifungal agents” (priority 2000, dated 2009)
